Test results reported in PubChem BioAssay AID248 (DTP/NCI, 2004).
Several values for one entry are separate records, joined by “and”; a condition that tells them apart may be missing. Equal entries are not always repeated. Toxic doses and inconclusive results are not listed. Cut-off read from the data, not from the text of the source: active = T/C of 150% or more; inactive = T/C below 125%.

Tested on: L1210 leukemia ip in BDF1 mice, survival T/C
Assay: NCI In Vivo Anticancer Drug Screen. Data for tumor model L1210 Leukemia (intraperitoneal) in B6D2F1 (BDF1) mice
Conditions: endpoint: mean survival time, higher = longer survival
Method in brief: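 Tumor cells were implanted, animals were treated, and survival was followed. The result divides the treated measurement by the vehicle-control measurement.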

[1] = dose: 100.0 mg/kg/injection, schedule: Q04DX002 (ip), vehicle: Klucel (hydroxypropylcellulose) (HPC)
[2] = dose: 200.0 mg/kg/injection, schedule: Q04DX002 (ip), vehicle: Klucel (hydroxypropylcellulose) (HPC)
[3] = dose: 400.0 mg/kg/injection, schedule: Q04DX002 (ip), vehicle: Klucel (hydroxypropylcellulose) (HPC)
[4] = dose: 100.0 mg/kg/injection, schedule: Q01DX009 (ip), vehicle: Klucel (hydroxypropylcellulose) (HPC)
[5] = dose: 200.0 mg/kg/injection, schedule: Q01DX009 (ip), vehicle: Klucel (hydroxypropylcellulose) (HPC)
[6] = dose: 100.0 mg/kg/injection, schedule: Q01DX001 (ip), vehicle: saline
[7] = dose: 200.0 mg/kg/injection, schedule: Q01DX001 (ip), vehicle: saline
[8] = dose: 400.0 mg/kg/injection, schedule: Q01DX001 (ip), vehicle: saline
[9] = dose: 100.0 mg/kg/injection, schedule: Q01DX001 (ip), vehicle: other
[10] = dose: 200.0 mg/kg/injection, schedule: Q01DX001 (ip), vehicle: other
[11] = dose: 100.0 mg/kg/injection, schedule: Q01DX009 (ip), vehicle: saline
[12] = dose: 100.0 mg/kg/injection, schedule: Q04DX003 (ip), vehicle: saline
[13] = dose: 200.0 mg/kg/injection, schedule: Q04DX003 (ip), vehicle: saline
[14] = dose: 50.0 mg/kg/injection, schedule: Q01DX009 (ip), vehicle: saline with Tween-80
[15] = dose: 100.0 mg/kg/injection, schedule: Q01DX009 (ip), vehicle: saline with Tween-80
[16] = dose: 25.0 mg/kg/injection, schedule: Q01DX009 (ip), vehicle: Klucel (hydroxypropylcellulose) (HPC)
[17] = dose: 50.0 mg/kg/injection, schedule: Q01DX009 (ip), vehicle: Klucel (hydroxypropylcellulose) (HPC)
[18] = dose: 200.0 mg/kg/injection, schedule: Q01DX009 (ip), vehicle: saline
[19] = dose: 400.0 mg/kg/injection, schedule: Q01DX009 (ip), vehicle: saline
[20] = dose: 50.0 mg/kg/injection, schedule: Q01DX001 (ip), vehicle: carboxymethylcellulose (CMC)
[21] = dose: 400.0 mg/kg/injection, schedule: Q04DX003 (ip), vehicle: saline

Measured: T/C

COc1ccc(OCC(=O)N2CCCC2)cc1
inactive: [1] 103 % of control | [2] 96 % of control | [3] 96 % of control

N#C[CH2][Sn]([I])([c]1ccccc1)[c]1ccccc1
inactive: dose: 12.5 mg/kg/injection, schedule: Q04DX002 (ip), vehicle: saline with Tween-80 100 % of control | dose: 25.0 mg/kg/injection, schedule: Q04DX002 (ip), vehicle: saline with Tween-80 107 % of control | dose: 50.0 mg/kg/injection, schedule: Q04DX002 (ip), vehicle: saline with Tween-80 91 % of control

CC1(C)C2CC3C(=CCC4C(=O)OC(=O)C43)C1C2 (stereo not drawn)
inactive: [4] 104 % of control | dose: 100.0 mg/kg/injection, schedule: Q04DX003 (ip), vehicle: Klucel (hydroxypropylcellulose) (HPC) 101 % of control | [5] 100 % of control | dose: 200.0 mg/kg/injection, schedule: Q04DX003 (ip), vehicle: Klucel (hydroxypropylcellulose) (HPC) 100 % of control | dose: 400.0 mg/kg/injection, schedule: Q04DX003 (ip), vehicle: Klucel (hydroxypropylcellulose) (HPC) 100 % of control

Cc1ccc(C(=O)c2ccccc2Cc2ccc3ccccc3c2)cc1
inactive: dose: 50.0 mg/kg/injection, schedule: Q01DX001 (ip), vehicle: saline 100 % of control | [6] 94 % of control | [7] 96 % of control | [8] 93 % of control

CCC(=O)OC1CCC2(C)C(=CCC3C2CCC2(C)C(C(C)CCCC(C)C)CCC32)C1 (stereo not drawn)
inactive: [9] 91 % of control | [10] 91 % of control

CC(=O)N1CCCC2CCc3c([nH]c4ccccc34)C21 (stereo not drawn)
inactive: dose: 75.0 mg/kg/injection, schedule: Q01DX001 (ip), vehicle: other 110 % of control | dose: 150.0 mg/kg/injection, schedule: Q01DX001 (ip), vehicle: other 119 % of control | dose: 300.0 mg/kg/injection, schedule: Q01DX001 (ip), vehicle: other 110 % of control

CCOCCCN
inactive: dose: 50.0 mg/kg/injection, schedule: Q01DX009 (ip), vehicle: saline 103 % of control | [11] 95 % of control | [12] 100 % of control | [13] 106 % of control

COc1ccc(OC)c(NC(=O)Nc2ccc(I)cc2)c1
inactive: [1] 96 % of control | [2] 96 % of control | [3] 107 % of control

CCCCNc1nc(N)nc2c1nnn2C1OC(CO)C(O)C1O (stereo not drawn)
inactive: [6] 107 % of control | [7] 101 % of control | [8] 107 % of control

COc1cc(/C=C/[N+](=O)[O-])c([N+](=O)[O-])cc1OC
inactive: [14] 90 % of control | [6] 106 % of control | [15] 87 % of control | [7] 101 % of control

O=c1[nH][nH]c(=O)n1-c1ccccc1
inactive: dose: 25.0 mg/kg/injection, schedule: Q01DX009 (ip), vehicle: saline with Tween-80 96 % of control | [14] 94 % of control | [15] 100 % of control | dose: 100.0 mg/kg/injection, schedule: Q04DX002 (ip), vehicle: saline with Tween-80 100 % of control | dose: 177.0 mg/kg/injection, schedule: Q04DX002 (ip), vehicle: saline with Tween-80 95 % of control | dose: 200.0 mg/kg/injection, schedule: Q01DX009 (ip), vehicle: saline with Tween-80 93 % of control | dose: 200.0 mg/kg/injection, schedule: Q04DX002 (ip), vehicle: saline with Tween-80 103 % of control | dose: 266.0 mg/kg/injection, schedule: Q04DX002 (ip), vehicle: saline with Tween-80 98 % of control | dose: 400.0 mg/kg/injection, schedule: Q01DX009 (ip), vehicle: saline with Tween-80 93 % of control | dose: 600.0 mg/kg/injection, schedule: Q04DX002 (ip), vehicle: saline with Tween-80 95 % of control

O=C(Nc1cc(C(F)(F)F)ccc1Cl)Oc1ccc(Cl)cc1Cc1ccccc1
inactive: [16] 93 % of control | [17] 88 % of control | [4] 101 % of control and 86 % of control and 88 % of control

Cn1cc(C2Cc3ccccc3NC3=C2C(=O)CC(C)(C)C3)c2ccccc21 (stereo not drawn)
inactive: [9] 103 % of control | [10] 92 % of control | dose: 400.0 mg/kg/injection, schedule: Q01DX001 (ip), vehicle: other 86 % of control

O=C(O)CSC(CC(=O)O)C(=O)O (stereo not drawn)
inactive: [11] 107 % of control | [18] 108 % of control | [19] 103 % of control

COc1c(NC(=O)c2ccccc2Cl)cccc1[N+](=O)[O-]
inactive: [16] 100 % of control | [17] 88 % of control | [4] 91 % of control and 92 % of control

N=C(Oc1c(Cl)c(Cl)c(Cl)c(Cl)c1Cl)Oc1c(Cl)c(Cl)c(Cl)c(Cl)c1Cl
inactive: [4] 100 % of control | [5] 111 % of control | dose: 400.0 mg/kg/injection, schedule: Q01DX009 (ip), vehicle: Klucel (hydroxypropylcellulose) (HPC) 102 % of control

ClC(c1ccccc1)C(Cl)c1ccccc1 (stereo not drawn)
inactive: [20] 101 % of control | dose: 75.0 mg/kg/injection, schedule: Q04DX002 (ip), vehicle: Klucel (hydroxypropylcellulose) (HPC) 109 % of control | dose: 100.0 mg/kg/injection, schedule: Q01DX001 (ip), vehicle: carboxymethylcellulose (CMC) 106 % of control | dose: 150.0 mg/kg/injection, schedule: Q04DX002 (ip), vehicle: Klucel (hydroxypropylcellulose) (HPC) 95 % of control | dose: 200.0 mg/kg/injection, schedule: Q01DX001 (ip), vehicle: carboxymethylcellulose (CMC) 101 % of control | dose: 300.0 mg/kg/injection, schedule: Q04DX002 (ip), vehicle: Klucel (hydroxypropylcellulose) (HPC) 92 % of control | dose: 400.0 mg/kg/injection, schedule: Q01DX001 (ip), vehicle: carboxymethylcellulose (CMC) 101 % of control

Nc1nc(N)c2c(n1)CN(Cc1ccccc1)C2
inactive: dose: 25.0 mg/kg/injection, schedule: Q01DX001 (ip), vehicle: carboxymethylcellulose (CMC) 103 % of control | [20] 103 % of control

CCOC(=O)N=C=S
inactive: [12] 95 % of control | [13] 103 % of control | [21] 95 % of control

COc1ccc(/C=C2\CCC3C(=O)CCCC3(C)C2=O)cc1 (stereo not drawn)
inactive: [11] 95 % of control | [12] 100 % of control | [18] 104 % of control | [13] 117 % of control | [19] 101 % of control | [21] 104 % of control

CC1CC(C)(C)N/C(=C/C(=O)N2Cc3cc4ccccc4nc3C2)O1 (stereo not drawn)
inactive: dose: 100.0 mg/kg/injection, schedule: Q01DX001 (ip), vehicle: Klucel (hydroxypropylcellulose) (HPC) 86 % of control | dose: 400.0 mg/kg/injection, schedule: Q01DX001 (ip), vehicle: Klucel (hydroxypropylcellulose) (HPC) 88 % of control

IP(c1ccccc1)(c1ccccc1)(c1ccccc1)N1C2CCCCC21 (stereo not drawn)
inactive: dose: 0.15 mg/kg/injection, schedule: Q01DX009 (ip), vehicle: acetone 107 % of control | dose: 0.31 mg/kg/injection, schedule: Q01DX009 (ip), vehicle: acetone 115 % of control | dose: 0.62 mg/kg/injection, schedule: Q01DX009 (ip), vehicle: acetone 115 % of control | dose: 0.62 mg/kg/injection, schedule: Q01DX009 (ip), vehicle: saline 112 % of control | dose: 0.62 mg/kg/injection, schedule: Q04DX003 (ip), vehicle: saline 113 % of control | dose: 1.2 mg/kg/injection, schedule: Q01DX001 (ip), vehicle: acetone 114 % of control | dose: 1.25 mg/kg/injection, schedule: Q01DX009 (ip), vehicle: saline 104 % of control | dose: 1.25 mg/kg/injection, schedule: Q04DX003 (ip), vehicle: saline 93 % of control | dose: 2.5 mg/kg/injection, schedule: Q01DX001 (ip), vehicle: acetone 119 % of control | dose: 2.5 mg/kg/injection, schedule: Q01DX009 (ip), vehicle: saline 114 % of control

O=[N+]([O-])c1cnc(C2=C(O)c3ccccc3CC2)s1
inactive: dose: 100.0 mg/kg/injection, schedule: Q01DX001 (ip), vehicle: saline with Tween-80 97 % of control

O=[As](O)(O)c1ccccc1Br
inactive: dose: 75.0 mg/kg/injection, schedule: Q01DX001 (ip), vehicle: saline 111 % of control | dose: 150.0 mg/kg/injection, schedule: Q01DX001 (ip), vehicle: saline 105 % of control | dose: 300.0 mg/kg/injection, schedule: Q01DX001 (ip), vehicle: saline 102 % of control
